Consider four compounds from ChEMBL document CHEMBL2380286, “Synthesis, characterization and anti-tumor activity of novel thymoquinone analogs against pancreatic cancer” (2013).

Calls of active or inactive are those of the source. No cut-off for these calls is given here.

In test [1] the test system is MIA PaCa-2. Description: Chemo-sensitizing activity in human MIAPaCa2 cells assessed as potentiation of gemcitabine-induced cytotoxicity at 2.5 uM after 72 hrs by MTT assay. The test is classed as functional, cell-based. (Tetrazolium dyes change colour on reduction, which living cells bring about.)
The test system of test [2] is MIA PaCa-2. The test is described as follows: Cytotoxicity against human MIAPaCa2 cells at 5 to 25 uM after 72 hrs by MTT assay. The test is classed as functional, cell-based.
In test [3] the test system is MIA PaCa-2. The test is described as follows: Induction of apoptosis in human MIAPaCa2 cells at 10 uM after 72 hrs by Histone DNA ELISA. The format is functional, cell-based. For orientation: In an ELISA, binding on a coated surface is turned into a signal by an enzyme label.
The subject of a further test is BXPC-3. Description: Cytotoxicity against human BxPC3 cells at 10 uM after 72 hrs by MTT assay. The test is classed as functional, cell-based.
The subject of test [4] is MIA PaCa-2. The test is described as follows: Cytotoxicity against human MIAPaCa2 cells at 0.5 uM after 72 hrs by MTT assay. The test is classed as functional.

For `CC1=C(/N=C/c2ccc(O)c(O)c2O)C(=O)C(C(C)C)=CC1=O`, the result with MIA PaCa-2 [1], with MIA PaCa-2 [2], in the test with MIA PaCa-2 [3] and in the test with BXPC-3 was Active.

As to `CC1=C(/N=C/c2ccc(F)c(F)c2F)C(=O)C(C(C)C)=CC1=O`, the result in the test on MIA PaCa-2 [1] was inactive. Further, the outcome with MIA PaCa-2 [3] and in the test on BXPC-3 was Active.

Compound `Nc1ccn([C@@H]2O[C@H](CO)[C@@H](O)C2(F)F)c(=O)n1` [GEMCITABINE] showed an Activity in the test on MIA PaCa-2 [4] greater than 50%.

As for `CC1=C(N)C(=O)C(C(C)C)=CC1=O`, in the test on BXPC-3, the result was Active.
